The NIST ThermoML archive (doi:10.1016/j.jct.2015.10.026)
± gives the expanded uncertainty stated by the source.

Key:
[1] = 101.33 kPa, Liquid; for electrical conductivity: Direct current cell with electrodes; for mass density: Vibrating tube method
[2] = mn = molality of the nth substance listed, in mol/kg; settings: 100 kPa, Liquid, Capillary tube (Ostwald / Ubbelohde) method, m2 = 0

Q: With `CCCCn1cc[n+](C)c1.NCCS(=O)(=O)[O-]` [1-butyl-3-methylimidazolium taurate] as the molecule, how does the viscosity ([1]; 293.15 K, Cone and plate viscometry) read?
A: The viscosity was 1761.4 ± 130 mPa·s.

Q: And the electrical conductivity ([1]; 293.15 K)?
A: The electrical conductivity was 0.0098 ± 0.0003 S/m.

Q: And the mass density ([1]; 293.15 K)?
A: Its mass density is 1195.4 ± 4.9 kg/m3.

Q: What about the viscosity ([1]; 298.15 K, Cone and plate viscometry) of the same molecule?
A: Its viscosity is 1169.2 ± 78 mPa·s.

Q: And the electrical conductivity ([1]; 298.15 K)?
A: Its electrical conductivity is 0.0161 ± 0.0005 S/m.

Q: And the mass density ([1]; 298.15 K)?
A: Its mass density is 1192.1 ± 4.9 kg/m3.

Q: What about the viscosity ([1]; 303.15 K, Cone and plate viscometry) of the same molecule?
A: Its viscosity is 799.87 ± 48 mPa·s.

Q: And the electrical conductivity ([1]; 303.15 K)?
A: The electrical conductivity was 0.0257 ± 0.0008 S/m.

Q: What about the mass density ([1]; 303.15 K) of the same molecule?
A: Its mass density is 1188.77 ± 4.9 kg/m3.

Q: What about the viscosity ([1]; 308.15 K, Cone and plate viscometry) of the same molecule?
A: Its viscosity is 561.88 ± 30 mPa·s.

Q: What about the electrical conductivity ([1]; 308.15 K) of the same molecule?
A: The electrical conductivity was 0.0356 ± 0.0011 S/m.

Q: And the mass density ([1]; 308.15 K)?
A: The mass density was 1185.4 ± 4.8 kg/m3.

Q: And the viscosity ([1]; 313.15 K, Cone and plate viscometry)?
A: Its viscosity is 405.34 ± 19 mPa·s.

Q: And the electrical conductivity ([1]; 313.15 K)?
A: Its electrical conductivity is 0.0518 ± 0.0016 S/m.

Q: What about the mass density ([1]; 313.15 K) of the same molecule?
A: Its mass density is 1182.02 ± 4.8 kg/m3.

Q: What about the viscosity ([1]; 318.15 K, Cone and plate viscometry) of the same molecule?
A: The viscosity was 298.26 ± 13 mPa·s.

Q: What about the electrical conductivity ([1]; 318.15 K) of the same molecule?
A: Its electrical conductivity is 0.0697 ± 0.0021 S/m.

Q: What about the mass density ([1]; 318.15 K) of the same molecule?
A: Its mass density is 1178.53 ± 4.8 kg/m3.

Q: And the viscosity ([1]; 323.15 K, Cone and plate viscometry)?
A: The viscosity was 224.97 ± 8.9 mPa·s.

Q: What about the electrical conductivity ([1]; 323.15 K) of the same molecule?
A: Its electrical conductivity is 0.0922 ± 0.0028 S/m.

Q: What about the mass density ([1]; 323.15 K) of the same molecule?
A: The mass density was 1175.06 ± 4.7 kg/m3.

Q: Which results are given for `O` [water]?
A: viscosity ([1]; 293.15 K, Capillary tube (Ostwald / Ubbelohde) method): 1.003 ± 0.021 mPa·s; viscosity ([1]; 298.15 K, Capillary tube (Ostwald / Ubbelohde) method): 0.89 ± 0.019 mPa·s; viscosity ([1]; 303.15 K, Capillary tube (Ostwald / Ubbelohde) method): 0.797 ± 0.017 mPa·s; viscosity ([1]; 308.15 K, Capillary tube (Ostwald / Ubbelohde) method): 0.719 ± 0.015 mPa·s; viscosity ([1]; 313.15 K, Capillary tube (Ostwald / Ubbelohde) method): 0.653 ± 0.014 mPa·s

Q: With `O` [water] + CCCCn1cc[n+](C)c1.NCCS(=O)(=O)[O-] as the molecule, how does the viscosity ([2]; 293.15 K) read?
A: Its viscosity is 1.003 ± 0.021 mPa·s.

Q: What about the viscosity ([2]; 298.15 K) of the same molecule?
A: The viscosity was 0.89 ± 0.019 mPa·s.

Q: And the viscosity ([2]; 303.15 K)?
A: The viscosity was 0.797 ± 0.017 mPa·s.

Q: And the viscosity ([2]; 308.15 K)?
A: Its viscosity is 0.719 ± 0.015 mPa·s.

Q: And the viscosity ([2]; 313.15 K)?
A: Its viscosity is 0.653 ± 0.014 mPa·s.
